From the supplement of paper PMC10307832

Experiments:
Assay in all cases: relative viability (nuclei count vs DMSO), 5 days (fraction); higher = more cells survive
TGX 221 + Lapatinib = compound: CC1=CN2C(=O)C=C(N=C2C(=C1)C(C)NC3=CC=CC=C3)N4CCOCC4 [TGX 221] + CS(=O)(=O)CCNCc1ccc(-c2ccc3ncnc(Nc4ccc(OCc5cccc(F)c5)c(Cl)c4)c3c2)o1 [Lapatinib] (partner 2 µM)
Procedure, shortened: (§1)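 Nuclei were stained with Hoechst during a one-step fixation (final 0.05% Triton X-100, 1% formaldehyde, 1 ug/ml Hoechst) carried out 5 days after dosing, then counted on 4× images. The cells, lung cancer lines in 1536-well plates, had been dosed by pin tool the day after seeding with one drug alone or a fixed anchor-drug dose plus five library-drug doses (not always all listed) in √10 steps. Relative viability is the nuclei count in treated wells divided by that in vehicle wells, and each value is the median of duplicate plates.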

TGX 221 + Trametinib = compound: CC1=CN2C(=O)C=C(N=C2C(=C1)C(C)NC3=CC=CC=C3)N4CCOCC4 [TGX 221] + CC(=O)Nc1cccc(-n2c(=O)n(C3CC3)c(=O)c3c(Nc4ccc(I)cc4F)n(C)c(=O)c(C)c32)c1 [Trametinib] (partner 0.02 µM)
Procedure, shortened: as §1

[1] = compound: C1=CC=C(C(=C1)C2=CC=C(C=C2)C3=CSC4=C3C(=C(C(=O)N4)C#N)O)O + CS(=O)(=O)CCNCc1ccc(-c2ccc3ncnc(Nc4ccc(OCc5cccc(F)c5)c(Cl)c4)c3c2)o1 [Lapatinib] (partner 2 µM)
Procedure, shortened: as §1

TGX 221 + Dasatinib = compound: CC1=CN2C(=O)C=C(N=C2C(=C1)C(C)NC3=CC=CC=C3)N4CCOCC4 [TGX 221] + Cc1nc(Nc2ncc(C(=O)Nc3c(C)cccc3Cl)s2)cc(N2CCN(CCO)CC2)n1 [Dasatinib] (partner 0.075 µM)
Procedure, shortened: as §1

Cell Line | relative viability (TGX 221 + Lapatinib; first compound 0.08 µM) | relative viability (TGX 221 + Lapatinib; first compound 0.253 µM) | relative viability (TGX 221 + Lapatinib; first compound 0.8 µM) | relative viability (TGX 221 + Lapatinib; first compound 2.53 µM) | relative viability (TGX 221 + Lapatinib; first compound 8 µM) | relative viability (TGX 221 + Trametinib; first compound 0.08 µM) | relative viability (TGX 221 + Trametinib; first compound 0.253 µM) | relative viability (TGX 221 + Trametinib; first compound 0.8 µM) | relative viability (TGX 221 + Trametinib; first compound 2.53 µM) | relative viability (TGX 221 + Trametinib; first compound 8 µM) | relative viability ([1]; first compound 0.08 µM) | relative viability ([1]; first compound 0.253 µM) | relative viability ([1]; first compound 0.8 µM) | relative viability ([1]; first compound 2.53 µM) | relative viability ([1]; first compound 8 µM) | relative viability (TGX 221 + Dasatinib; first compound 0.08 µM) | relative viability (TGX 221 + Dasatinib; first compound 0.253 µM) | relative viability (TGX 221 + Dasatinib; first compound 0.8 µM) | relative viability (TGX 221 + Dasatinib; first compound 2.53 µM) | relative viability (TGX 221 + Dasatinib; first compound 8 µM)
NCI-H2228 | 0.948 | 1.46 | 0.909 | 0.759 | 0.751 | 0.518 | 0.526 | 0.801 | 0.379 | 0.489 | 0.701 | 1.33 | 0.814 | 0.998 | 1.1 | 0.508 | 0.471 | 0.517 | 0.474 | 0.398
NCI-H322M | 0.567 | 0.6 | 0.547 | 0.562 | 0.67 | 0.47 | 0.488 | 0.508 | 0.504 | 0.5 | 0.621 | 0.616 | 0.569 | 0.563 | 0.589 | 0.231 | 0.242 | 0.244 | 0.247 | 0.224
LK-2 | 0.853 | 0.891 | 0.887 | 0.915 | 1.01 | 0.725 | 0.716 | 0.847 | 0.823 | 0.749 | – | 0.884 | 0.932 | 1.05 | 0.696 | 0.242 | 0.293 | 0.312 | 0.298 | 0.265
LXF-289 | 0.933 | 0.889 | 0.955 | 0.904 | 0.885 | 0.67 | 0.757 | 0.708 | 0.674 | 0.744 | 0.89 | 0.895 | 0.917 | 0.908 | 0.924 | 0.209 | 0.254 | 0.194 | 0.18 | 0.203
PC-3 [JPC-3] | 0.448 | 0.46 | 0.445 | 0.431 | 0.429 | 0.662 | 0.701 | 0.668 | 0.595 | 0.571 | 0.488 | 0.556 | 0.479 | 0.441 | 0.472 | 0.893 | 0.934 | 1.02 | 0.93 | 0.925
BEN | 0.721 | 0.719 | 0.506 | 0.68 | 0.605 | 1.03 | 0.969 | 0.93 | 0.998 | 0.891 | 0.577 | 0.663 | 0.716 | 0.87 | 0.645 | 0.385 | 0.266 | 0.317 | 0.328 | 0.293
NCI-H1355 | 1.07 | 0.964 | 0.859 | 0.95 | 0.852 | 0.448 | 0.396 | 0.406 | 0.359 | 0.302 | 0.949 | 0.966 | 1.1 | 0.81 | 0.999 | 0.688 | 0.688 | 0.721 | 0.688 | 0.632
EKVX | 0.231 | 0.194 | 0.213 | 0.182 | 0.19 | 0.3 | 0.322 | 0.291 | 0.273 | 0.304 | 0.225 | 0.208 | 0.201 | 0.195 | 0.211 | 0.399 | 0.523 | 0.432 | 0.493 | 0.365
NCI-H358 | 0.477 | 0.458 | 0.472 | 0.42 | 0.442 | 0.13 | 0.127 | 0.153 | 0.132 | 0.132 | 0.431 | 0.473 | 0.549 | 0.49 | 0.41 | 0.158 | 0.169 | 0.146 | 0.165 | 0.158
A-427 | 0.998 | 0.992 | 1.01 | 0.991 | 1.05 | 0.686 | 0.747 | 0.771 | 0.627 | 0.7 | 0.917 | 1.06 | 1.2 | 1.03 | 1.2 | 0.696 | 0.735 | 0.671 | 0.657 | 0.692
NCI-H23 | 1.13 | 0.95 | 1.1 | 1.12 | 0.975 | 0.279 | 0.329 | 0.338 | 0.403 | 0.328 | 1.36 | 1.09 | 1.19 | 1.08 | 0.843 | 0.784 | 0.745 | 0.823 | 0.742 | 0.586
NCI-H596 | 1.13 | 1.09 | 1.03 | 0.993 | 0.958 | 0.654 | 0.807 | 0.82 | 0.908 | 0.774 | 0.866 | 1.17 | 1.16 | 0.999 | 1.02 | 0.593 | 0.531 | 0.585 | 0.522 | 0.563
NCI-H2087 | 1.09 | 0.912 | 1.13 | 0.985 | 1.11 | 0.168 | 0.155 | 0.211 | 0.207 | 0.217 | 1.05 | 1.11 | 1.01 | 1.19 | 1.04 | 1.02 | 0.75 | 0.646 | 0.9 | 0.993
HCC-78 | 0.702 | 0.699 | – | 0.277 | 0.794 | 0.735 | 0.586 | 0.757 | 0.551 | 0.469 | 0.575 | 0.935 | 0.899 | 0.781 | 0.809 | 0.405 | 0.324 | 0.231 | 0.235 | 0.246
NCI-H520 | 0.724 | 0.562 | 0.824 | 0.671 | 0.516 | 0.521 | 0.591 | 0.744 | 0.597 | 0.505 | 0.602 | 0.876 | 1.15 | 0.859 | 0.736 | 0.215 | 0.202 | 0.156 | 0.16 | 0.159
NCI-H727 | 0.751 | 0.731 | 0.794 | 0.832 | 0.919 | 0.476 | 0.362 | 0.409 | 0.392 | 0.366 | 0.834 | 0.844 | 0.927 | 0.589 | 0.757 | 0.287 | 0.436 | 0.412 | 0.409 | 0.439
